Experimental data published in paper PMC11784839, “Monoaminergic neurotransmitters are bimodal effectors of tau aggregation” (Science Advances, 2025).
“Also recorded” adds a separate entry of the source. Read-outs that look alike come from different tables or passages of the source.

Columns and labels:
[1] = target: T1, tau (Homo sapiens, UniProt P10636); assay: MCE Phenols Library screening, tau biosensor cell seeding assay (AvZ); type: cell-based; details: for AvZ (average z score of seeding, SDs from the mean level of seeding): 10 μM phenol in cell cultures, AD brain homogenate preincubated 16 hours, two biological replicates, positive = catalyzes seeding, negative = inhibits; for Z repl 1 / Z Repl 2: Z score; for Z repl 1 / raw data 1: replicate 1; for Z Repl 2 / raw data 2: replicate 2
Target sequence in this assay (P10636 623-695 limits assumed): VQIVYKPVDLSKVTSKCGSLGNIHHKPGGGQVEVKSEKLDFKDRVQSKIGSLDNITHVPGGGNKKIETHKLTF

[2] = target: T1, tau; assay: Tau biosensor dose titrations (HEK293T tau biosensor cells seeded with AD brain homogenate);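 as to all read-outs here: AD brain homogenate preincubated 16 h with compound, then transfected into tau biosensor cells, seeding read as tau puncta counted by imaging, normalized to cell confluence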; type: cell-based; details: for effect on seeding at 10 μM: 10 μM final concentration on cells; for effect on seeding at 10 μM / effect on seeding at 50 μM: AD brain homogenate seed; for effect on seeding, concentrations ranging from 10 to 100 μM: AD brain homogenate seed (Fig. 2A); for dose-dependent effect of NT on tau seeding: AD brain homogenate pretreated with indicated amounts of NT (Fig. 3A); for IC50: read-out: IC50 low tau load; for effect on seeding, extended dose series: NT concentrations tested from 25 nM to 100 µM (fig. S6); for effect on seeding at 50 μM: 50 μM final concentration on cells
[3] = target: tau fibrils purified from AD brain (Homo sapiens, UniProt P10636); assay: Quantitative electron microscopy (qEM) of fibril disaggregation; type: biochemical; details: 75 μM, 24-hour treatment, vs no inhibitor control; listed as HVA
[4] = target: VMAT2; details: read-out: dissociation constant (Kd) for VMAT2; cited from earlier work
[5] = average puncta of the two replicates
[6] = average Z score of the two replicates, tau seeding
[7] = average Z score of two replicates, Phenols Library screen
[8] = average Z score of the two replicates, MCE Phenols Library screen

Sequence of tau fibrils purified from AD brain (P10636 623-695 limits assumed): as above

Compound | Z repl 1 [1] | Z Repl 2 [1] | av puncta ([1]; average of raw data 1 and 2) | raw data 1 ([1]; puncta) | raw data 2 ([1]; puncta) | also measured
NC(Cc1ccc(O)c(O)c1)C(=O)O (racemic) [DL-DOPA] | – | – | – | – | – | AvZ (average z score of seeding, SDs from the mean level of seeding) [1]: 1.763; AvZ (average z score of seeding, SDs from the mean level of seeding) ([1]; listed as DL-dopa): 1.76; effect on seeding at 10 μM [2]: seeding catalyst; also recorded: catalyzed; effect on seeding, concentrations ranging from 10 to 100 μM [2]: dose-dependent inhibitor at higher concentrations
NC(Cc1cccc(O)c1)C(=O)O (racemic) [DL-m-Tyrosine] | 1.84 | 1.982 | 41183.3 | 48433.9 | 33932.7 | AvZ (average z score of seeding, SDs from the mean level of seeding) [1]: 1.911; effect on seeding, concentrations ranging from 10 to 100 μM [2]: catalyzed seeding independently of dose at all concentrations tested
O=C(O)Cc1c[nH]c2ccc(O)cc12 [5-Hydroxyindole-3-acetic acid] | -0.16 | -0.771 | – | 24430.2 | 4529.6 | AvZ (average z score of seeding, SDs from the mean level of seeding) [1]: -0.466; av puncta [1, 5]: 14479.9; dose-dependent effect of NT on tau seeding [2]: inhibited tau seeding at levels comparable to EP
N[C@H](Cc1ccc(O)c(O)c1)C(=O)O [D-dopa] | – | – | – | – | – | IC50 ([2]; AD brain homogenate diluted to […] ptau): 1.9 µM
O=C(O)Cc1ccc(O)c(O)c1 [DOPAC, 3,4-dihydroxyphenylacetic acid] | – | – | – | – | – | dose-dependent effect of NT on tau seeding [2]: inhibited seeding with effects similar to DA
CNC[C@H](O)c1ccc(O)c(O)c1 [EP, epinephrine, reference compound] | – | – | – | – | – | dose-dependent effect of NT on tau seeding [2]: inhibited seeding with the next greatest efficacy
NCCCC(=O)O [GABA, γ-aminobutyric acid] | – | – | – | – | – | dose-dependent effect of NT on tau seeding [2]: no significant inhibitory effects on tau seeding; effect on seeding, extended dose series [2]: No inhibitory effect
CC(C)=CCc1c(O)cc2oc3cc(O)c(O)c(CCC(C)(C)O)c3c(=O)c2c1O [Garcinone C] | – | – | – | – | – | AvZ (average z score of seeding, SDs from the mean level of seeding) [1]: 3.115; effect on seeding at 10 μM [2]: catalyzed seeding; effect on seeding at 50 μM [2]: inhibited seeding
COc1cc(CC(=O)O)ccc1O [Homovanillic acid] | -0.336 | 0.228 | 18758.8 | 22315.8 | 15201.8 | AvZ (average z score of seeding, SDs from the mean level of seeding) [1]: -0.054; AvZ (average z score of seeding, SDs from the mean level of seeding) ([1]; listed as HVA): −0.054; effect on tau fibril load (qEM) [3]: significant reduction in fibrils, though to a lesser extent
NC[C@H](O)c1ccc(O)c(O)c1 [NE, norepinephrine, reference compound] | – | – | – | – | – | IC50 ([2]; AD brain homogenate diluted to 0.11 ng/μl ptau): > 25 µM
CC(=O)OCC[N+](C)(C)C [acetylcholine] | – | – | – | – | – | dose-dependent effect of NT on tau seeding [2]: no significant inhibitory effects on tau seeding; effect on seeding, extended dose series [2]: No inhibitory effect
Nc1ncnc2c1ncn2[C@@H]1O[C@H](CO)[C@@H](O)[C@H]1O [adenosine, reference compound] | – | – | – | – | – | dose-dependent effect of NT on tau seeding [2]: no significant inhibitory effects on tau seeding; also recorded: dose-dependently catalyzed tau seeding
COc1c(O)cc2oc3cc(O)c(CC=C(C)C)c(O)c3c(=O)c2c1CCC(C)(C)O [garcinone D] | – | – | – | – | – | av Z [1, 6]: 0.598; effect on seeding at 10 μM [2]: catalyzed seeding; effect on seeding at 50 μM [2]: inhibited seeding
N[C@@H](CCC(=O)O)C(=O)O [glutamate] | – | – | – | – | – | dose-dependent effect of NT on tau seeding [2]: no significant inhibitory effects on tau seeding; effect on seeding, extended dose series [2]: No inhibitory effect
COc1ccc(-c2cc(=O)c3c(O)cc(O)c(-c4cc(-c5cc(=O)c6c(O)cc(OC)cc6o5)ccc4OC)c3o2)cc1 [sciadopitysin] | 0.092 | 0.543 | 23005 | 27448.5 | 18561.5 | av Z [1, 6]: 0.317; effect on seeding at 10 μM [2]: catalyzed seeding; effect on seeding at 50 μM [2]: inhibited seeding
NCCc1c[nH]c2ccc(O)cc12 [serotonin, 5-hydroxytryptamine] | – | – | – | – | – | dose-dependent effect of NT on tau seeding [2]: no significant inhibitory effects on tau seeding; Kd [4]: 3.3 µM

Compound | Z repl 1 [1] | Z Repl 2 [1] | av puncta ([1]; average of raw data 1 and 2) | raw data 1 ([1]; puncta) | raw data 2 ([1]; puncta) | also measured
Bavachinin | 0.618 | -0.383 | 21219.6 | 33763.9 | 8675.17 | av Z [1, 7]: 0.117
Corylin | -0.181 | -0.689 | – | – | – | av Z [1, 8]: -0.435; av puncta [1, 5]: 14787.4; raw data 1 ([1]; raw puncta): 24170.2; raw data 2 ([1]; raw puncta): 5404.62
Echinacoside | 0.125 | -0.609 | – | – | – | av Z [1, 8]: -0.242; av puncta [1, 5]: 17056.9; raw data 1 ([1]; raw puncta): 27847.2; raw data 2 ([1]; raw puncta): 6266.63
Engeletin | -1.222 | -0.399 | 10092.3 | 11684.3 | 8500.41 | av Z [1, 8]: -0.81
Gigantol | -0.874 | -0.481 | – | 15857.3 | 7628.39 | av Z [1, 8]: -0.677
Isoliquiritin apioside | 0.567 | -0.451 | 20550.8 | 33153.4 | 7948.29 | av Z [1, 7]: 0.058
Liquiritin apioside | 0.133 | -0.022 | 20239.1 | 27949.8 | 12528.3 | av Z [1, 7]: 0.056
Medicarpin | -0.987 | -0.112 | – | 14494.9 | 11569.9 | av Z [1, 8]: -0.55; av puncta [1, 5]: 13032.4
Myricitrin | -0.619 | -1.178 | 9550.45 | 18913 | 187.899 | av Z [1, 8]: -0.899
Neosmitilbin | 0.198 | -0.157 | 19907.5 | 28721.6 | 11093.4 | av Z [1, 7]: 0.021
Punicalagin | -2.185 | -1.19 | 87.672 | 119.783 | 55.562 | av Z [1, 8]: -1.687
Punicalin | -2.134 | -1.192 | 380.043 | 725.667 | 34.42 | av Z [1, 8]: -1.663
Rhodiosin | -1.331 | -1.146 | 5448.02 | 10373.6 | 522.423 | av Z [1, 8]: -1.239
Theaflavin 3,3'-digallate | – | – | 323.309 | 392.747 | 253.87 | –
Thymopentin [reference compound] | -1.145 | -0.22 | – | 12607.7 | 10414 | AvZ (average z score of seeding, SDs from the mean level of seeding) [1]: -0.682; av puncta [1, 5]: 11510.9
Tubuloside A | 0.218 | 0.274 | 22327.4 | 28967.6 | 15687.1 | –
